The source of these data is patent US20200392161A1, “SHP2 PHOSPHATASE INHIBITORS AND METHODS OF USE THEREOF” (Relay Therapeutics, Inc., priority 2018, published 2020).

Structures are written as SMILES. Counter-ions that a name gives are not always drawn.

In the first experiment the target is T1, SHP2 (Homo sapiens, UniProt Q06124).
T1 sequence (Q06124 1-593): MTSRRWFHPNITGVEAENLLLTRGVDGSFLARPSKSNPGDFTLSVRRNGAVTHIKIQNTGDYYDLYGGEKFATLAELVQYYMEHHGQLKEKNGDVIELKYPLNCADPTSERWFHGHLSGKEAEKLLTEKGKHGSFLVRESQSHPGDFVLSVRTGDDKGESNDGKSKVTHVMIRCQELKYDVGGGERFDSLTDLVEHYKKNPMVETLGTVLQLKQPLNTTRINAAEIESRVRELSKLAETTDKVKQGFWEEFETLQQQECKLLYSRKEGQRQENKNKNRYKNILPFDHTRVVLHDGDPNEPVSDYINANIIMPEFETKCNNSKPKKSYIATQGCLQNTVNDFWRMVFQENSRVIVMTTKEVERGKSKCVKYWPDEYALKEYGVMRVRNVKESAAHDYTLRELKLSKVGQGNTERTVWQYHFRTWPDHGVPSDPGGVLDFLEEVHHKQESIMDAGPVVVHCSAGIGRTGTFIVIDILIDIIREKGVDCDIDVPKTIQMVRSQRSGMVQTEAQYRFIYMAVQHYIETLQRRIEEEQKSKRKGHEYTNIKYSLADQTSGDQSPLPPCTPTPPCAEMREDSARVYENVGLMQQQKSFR
Put plainly: SHP2 allosteric inhibition assay (DiFMUP prompt fluorescence). The class given is biochemical. As to conditions: Table 1; 0.25 nM SHP2, 0.5 μM IRS1_pY1172(dPEG8)pY1222 peptide, DiFMUP 100 μM. An excerpt:
SHP2 Allosteric Inhibition Assay.
SHP2 is allosterically activated through binding of bis-tyrosyl-phosphorylated peptides to its Src Homology 2 (SH2) domains. The latter activation step leads to the release of the auto-inhibitory interface of SHP2, which in turn renders the SHP2 protein tyrosine phosphatase (PTP) active and available for substrate recognition and reaction catalysis. The catalytic activity of SHP2 was monitored using the surrogate substrate DiFMUP in a prompt fluorescence assay format.
The inhibitor dose response curves were analyzed using normalized IC50 regression curve fitting with control based normalization.
The IC50 is the concentration that gives 50% inhibition. Low values mean higher potency, high ones lower potency. As for `CC1(CN)CCN(c2nn3c(N)c(-c4cccc(Cl)c4Cl)nc3s2)C1` (centres unmarked) [Compound A5, 2-(3-(aminomethyl)-3-methylpyrrolidin-1-yl)-6-(2,3-dichlorophenyl)imidazo[2,1-b][1,3,4]thiadiazol-5-amine], the IC50 was < 5 µM. Take `CC1(CN)CCN(c2nn3c(N)c(-c4cccc(Cl)c4Cl)nc3s2)CC1` [Compound A9, 2-(4-(aminomethyl)-4-methylpiperidin-1-yl)-6-(2,3-dichlorophenyl)imidazo[2,1-b][1,3,4]thiadiazol-5-amine formate]: the IC50 is 5 to 20 µM. The same measure, in the same setting: in the case of `Nc1c(-c2cccc(Cl)c2Cl)nc2sc(N3C[C@@H]4[C@@H](N)[C@@H]4C3)nn12` [Compound A3] it was < 5 µM. Still for that read-out and setting: in the case of `CC1(N)CCN(c2nn3c(N)c(-c4cccc(Cl)c4Cl)nc3s2)CC1` [Compound A4, 2-(4-amino-4-methylpiperidin-1-yl)-6-(2,3-dichlorophenyl)imidazo[2,1-b][1,3,4]thiadiazol-5-amine formate] it was > 20 µM; in that of `Cc1c(-c2ccccc2Cl)nc2sc(N3CCC(C)(N)C3)nn12` (centres unmarked) [Compound A11, 1-(6-(2-chlorophenyl)-5-methylimidazo[2,1-b][1,3,4]thiadiazol-2-yl)-3-methylpyrrolidin-3-amine formate], < 5 µM. Take `Nc1c(-c2cccc(Cl)c2Cl)nc2sc(N3CCNCC3)nn12` [Compound A12, 6-(2,3-dichlorophenyl)-2-(piperazin-1-yl)imidazo[2,1-b][1,3,4]thiadiazol-5-amine]: the IC50 was > 20 µM. Turning to `CC1(CN)CCN(c2nn3cc(C(=O)N4CCCc5ncccc54)nc3s2)C1` (centres unmarked) [Compound A8, (2-(3-(aminomethyl)-3-methylpyrrolidin-1-yl)imidazo[2,1-b][1,3,4]thiadiazol-6-yl)(3,4-dihydro-1,5-naphthyridin-1(2H)-yl)methanone formate], the IC50 was > 20 µM. Take `Cc1c(-c2ccccc2Cl)nc2sc(N3CCC(C)(CN)C3)nn12` (centres unmarked) [Compound A10, (1-(6-(2-chlorophenyl)-5-methylimidazo[2,1-b][1,3,4]thiadiazol-2-yl)-3-methylpyrrolidin-3-yl)methanamine formate]: the IC50 was < 5 µM. On to `CC1(CN)CCN(c2nn3cc(-c4cccc(Cl)c4Cl)nc3s2)CC1` [Compound A2, (1-(6-(2,3-dichlorophenyl)imidazo[2,1-b][1,3,4]thiadiazol-2-yl)-4-methylpiperidin-4-yl)methanamine formate], for which the IC50 lay in the range of 5 to 20 µM. As to `CC1(N)CCCN(c2nn3c(N)c(-c4cccc(Cl)c4Cl)nc3s2)C1` (centres unmarked) [Compound A1, 2-(3-amino-3-methylpiperidin-1-yl)-6-(2,3-dichlorophenyl)imidazo[2,1-b][1,3,4]thiadiazol-5-amine formate], the IC50 was < 5 µM.

Still in this experiment, the particulars now being: Table 2; 0.25 nM SHP2, 0.5 μM IRS1_pY1172(dPEG8)pY1222 peptide, DiFMUP 100 μM.
Consider `CC1(CN)CCN(c2ncc(-c3ccccc3Cl)s2)C1` (centres unmarked) [Compound B3, (1-(5-(2-chlorophenyl)thiazol-2-yl)-3-methylpyrrolidin-3-yl)methanamine formate], for which the IC50 is > 100 µM.

Still in this experiment, the particulars now being: Table 3; 0.25 nM SHP2, 0.5 μM IRS1_pY1172(dPEG8)pY1222 peptide, DiFMUP 100 μM.
For `COc1cc(-c2nc(CSc3nnc(-c4ccc(C)cc4C)o3)cs2)ccc1O` [Compound C34], the IC50 is > 1000 µM.

`COc1cccc(-c2nc(CSc3nncs3)cs2)c1` [Compound C9] had an IC50 of 500 to 1000 µM. On to `COc1cc(-c2nc(CSc3nncn3C)cs2)ccc1O` [Compound C20], for which the IC50 is < 500 µM. As to `Cn1cnnc1SCc1csc(-c2ccc3c(c2)OCO3)n1` [Compound C26], the IC50 is > 1000 µM.

On to `COc1cc(-c2nc(CN3CCOCC3C)cs2)ccc1O` (centres unmarked) [Compound C22], for which the IC50 was > 1000 µM. `NCC1CCN(C(=O)c2csc(-c3ccccc3F)n2)C1` (centres unmarked) [Compound C49]: the IC50 was > 1000 µM. Regarding `CCOc1ccc(-c2nc(CSc3nncs3)cs2)cc1OC` [Compound C23], the IC50 was > 1000 µM. As to `c1nnc(SCc2csc(-c3ccc4c(c3)OCO4)n2)s1` [Compound C13], the IC50 was < 500 µM.

In turn, `COc1ccc(-c2nc(CSc3ncccn3)cs2)cc1OC` [Compound C7] gave a half-maximal inhibitory concentration (IC50) of 500 to 1000 µM. On the same count and under the same terms, the same measure for `O=C(O)c1csc(-c2cccc3ccccc23)n1` [Compound C2]: < 500 µM; for `COc1ccc(-c2nc(CSc3nnc(C4CC4)n3N)cs2)cc1OC` [Compound C10]: 500 to 1000 µM. Same read-out and setting: in the case of `COc1ccc(-c2nc(CSc3nncs3)cs2)cc1` [Compound C28] it was > 1000 µM; in that of `COc1ccc(-c2nc(CSc3nccn3C3CC3)cs2)cc1OC` [Compound C12], < 500 µM; in that of `COc1cc(-c2nc(CSc3nnc(-c4ccccc4C)n3C)cs2)ccc1O` [Compound C18], 500 to 1000 µM. On the same count and under the same terms, the same measure for `COc1ccc(-c2nc(CSc3nncn3-c3ccccc3)cs2)cc1OC` [Compound C29]: > 1000 µM.

For `Cc1nc(-c2ccc(C(F)(F)F)cc2)sc1C(=O)N1CC[C@@H](N)C1` [Compound C44], the IC50 is > 1000 µM. Regarding `c1ccc(-c2nc(CSc3nncs3)cs2)cc1` [Compound C40], the half-inhibitory concentration (IC50) is > 1000 µM. Regarding `O=C(O)Cc1csc(-c2cccc(Cl)c2Cl)n1` [Compound C41], the IC50 is > 1000 µM. Turning to `c1cc(-c2nc(CSc3nncs3)cs2)co1` [Compound C24], the IC50 is > 1000 µM. For `COc1ccc(-c2nc(CSc3nnc(NCC4CCCO4)s3)cs2)cc1OC` (centres unmarked) [Compound C19], the IC50 fell in the range of 500 to 1000 µM. Turning to `COc1ccc(-c2nc(CSc3nnc(-c4ccco4)o3)cs2)cc1OC` [Compound C30], the IC50 was > 1000 µM. On to `COCCn1cnnc1SCc1csc(-c2ccc(OC)c(OC)c2)n1` [Compound C15], for which the IC50 was < 500 µM. Still for that read-out and setting: in the case of `COc1ccc(-c2nc(CSc3nnnn3C)cs2)cc1OC` [Compound C6] it was 500 to 1000 µM; in that of `Cc1ccc(-c2nc(C)c(C(=O)N3CCC(CN)C3)s2)c(C)c1` (centres unmarked) [Compound C47], > 1000 µM. Turning to `C=C(C)CSc1nnc(SCc2csc(-c3ccc(OC)c(OC)c3)n2)s1` [Compound C33], the IC50 is > 1000 µM.

With `COc1cc(-c2nc(CN(C)Cc3ccco3)cs2)ccc1O` [Compound C37], the IC50 is > 1000 µM.

For the compound `CCC(=O)N(c1nnc(SCc2csc(-c3ccc(OC)c(OC)c3)n2)s1)C1CC1` [Compound C31], the IC50 was > 1000 µM. Take `COc1ccc(-c2nc(CSc3nnc(N(C(C)=O)C4CC4)s3)cs2)cc1OC` [Compound C38]: the IC50 was > 1000 µM. On the same count and under the same terms, in the case of `COc1ccc(-c2nc(CSc3nnnn3C3CC3)cs2)cc1OC` [Compound C25] it was > 1000 µM. With `NC1CCCN(C(=O)c2cnc(-c3ccc(C(F)(F)F)cc3)s2)CC1` (centres unmarked) [Compound C48], the half-maximal inhibitory concentration (IC50) is > 1000 µM.

Staying with this experiment, now noted: Table 4; 0.25 nM SHP2, 0.5 μM IRS1_pY1172(dPEG8)pY1222 peptide, DiFMUP 100 μM.
`CC1(CN)CCN(c2ncnc3c(-c4cccc(Cl)c4Cl)csc23)CC1` [Compound D2, (1-(7-(2,3-dichlorophenyl)thieno[3,2-d]pyrimidin-4-yl)-4-methylpiperidin-4-yl)methanamine] had a 50% inhibitory concentration (IC50) of 1 to 10 µM.

The same experiment, now with this note: Table 5; 0.25 nM SHP2, 0.5 μM IRS1_pY1172(dPEG8)pY1222 peptide, DiFMUP 100 μM.
Turning to `Cc1cc2occ(-c3ccccc3Cl)n2n1` [Compound E3, 3-(2-chlorophenyl)-6-methylpyrazolo[5,1-b]oxazole], the IC50 is > 100 µM.

The same experiment, now with this note: Table 6; 0.25 nM SHP2, 0.5 μM IRS1_pY1172(dPEG8)pY1222 peptide, DiFMUP 100 μM.
Regarding `Cn1c(N2CCC(C)(CN)CC2)nc2[nH]nc(Sc3cccc(Cl)c3Cl)c2c1=O` [Compound F7, 6-(4-(aminomethyl)-4-methylpiperidin-1-yl)-3-((2,3-dichlorophenyl)thio)-5-methyl-1H-pyrazolo[3,4-d]pyrimidin-4(5H)-one hydrochloride], the IC50 was < 1 µM. In the case of `Cn1c(N2CCC(C)(CN)CC2)nc2[nH]nc(N3CCCc4ncccc43)c2c1=O` [Compound F1, 6-(4-(aminomethyl)-4-methylpiperidin-1-yl)-3-(3,4-dihydro-1,5-naphthyridin-1(2H)-yl)-5-methyl-1H-pyrazolo[3,4-d]pyrimidin-4(5H)-one, hydrochloride], the IC50 was < 1 µM. With `CC1(N)CCN(c2cc(=O)nc3[nH]nc(-c4cccc(Cl)c4F)n23)CC1` [Compound F2, 5-(4-amino-4-methylpiperidin-1-yl)-3-(3-chloro-2-fluorophenyl)-[1,2,4]triazolo[4,3-a]pyrimidin-7(1H)-one hydrochloride], the IC50 is > 20 µM. `O=c1c2[nH]nc(-c3cccc(Cl)c3Cl)c2ncn1C1CCNCC1` [Compound F5, 3-(2,3-dichlorophenyl)-6-(piperidin-4-yl)-1H-pyrazolo[4,3-d]pyrimidin-7(6H)-one]: the IC50 lay in the range of 1 to 20 µM.
